These results are taken from patent US20130136691A1, “GASTRIN […] PEPTIDE COMPOUNDS” (priority 2008, published 2013).

The target of one data set is T1, human GRP-R (Homo sapiens, UniProt P30550).
T1 construct: host or cells: PC3 / PC-3 human prostate cancer cells (intact, plated)
Kind of data set: Competition assay with 125I-BBN for GRP-R in PC3 cells (IC50). The settings on record: competition with 125I-BBN. The class given is binding.

Data set [1] concerns BT-474 tumor-bearing nude mice. The note with it: 1 hr; + Tamoxifen/+ ES, day 14, n = 3; control 2.18 ± 0.63.
Experimental: Female nude mice ([Ncr]-Foxn1) received hormone supplementation by administration of 17β-estradiol via 60 day time released pellets implanted s.c. (0.72 mg/60 Day release; 0.6 mg/kg; Innovative Research of America, Sarasota, Fla.). Four to seven days after beginning hormone treatment, the mice were xenografted with ten million BT-474 cells in Matrigel (1:1 with PBS) s.c. to the flank. The 1713 estradiol is required for tumor cell growth in this model.
Control mice received vehicle-only time release pellets (in addition to hormone support).
In data set [2] the test system is human PC-3 nude mouse model. Format: in vivo. The note with it: i.v. How it is done:
10-50 μCi of the HPLC purified compounds were administered to each mouse by i.v. tail vein injection, n=4 per group. At 1 h, 1 and 7 days post injection, the mice were terminated and the organs and tissues were harvested. Radioactivity was assayed in a gamma counter. The data was expressed as percentage of the total administered radioactivity (% ID) for the urine combined with the bladder, as well as for the blood pool; and percentage of the total administered radioactivity per gram (% ID/g) for all the other tested organs.

For data set [3] the following is noted: breast cancer (30% have HER2/neu, 30% treated respond); cited from earlier work.
Data set [4] concerns GRP receptor binding in T47D human breast cancer cells. Kind of data set: Effect of drug treatment on GRP receptor binding (177Lu-AMBA) and proliferation in T-47D cells. Format: cell-based. The note with it: T-47D, relative to untreated control. An excerpt: T-47D breast cancer cells (human metastatic mammary gland ductal adenocarcinoma isolated from pleural effusion, ER+, PR+) were obtained from the American Type Culture Collection.

In data set [5] the test system is GRP receptor binding in ZR-75-1 human breast cancer cells. Kind of data set: 4-hydroxytamoxifen effect on 177Lu-AMBA binding and proliferation in ZR-75-1 cells (2 to 12 days). The class given is cell-based. The note with it: for % Change in Proliferation / % change in 177Lu-AMBA Uptake: ZR-75-1 cells.
Experimental: Method: ZR-75-1 breast cancer cell line (human ductal carcinoma with estrogen receptor) was obtained from the American Type Culture Collection (ATCC).
ZR-75-1 cells were plated on Day 0 (40k/well 96-well PE Scintiplate). […] To determine the cell numbers and the proliferation, 100 uL of 10% CCK-F solution in DPBS (Molecular technologies) was added to the same plate, incubated for 30 min at 37° C. and the relative fluorescence (RFU) measured at 535 nm. Based on the cell numbers and the ^177Lu-binding, the Bmax (fmoles bound/million cells) was calculated.
ZR-75-1 breast cancer cell lines were cultured as described above.
(§1) The ZR-75-1 cells were seeded at 15K per well onto two 96-well scintiplates on the same day as 2 days study.
Data set [6] has as its system ZR-75-1 human breast cancer cells. Put plainly: Glucose uptake (2-NBDG) in ZR-75-1 cells after 4-hydroxytamoxifen. Format: cell-based. The note with it: for % Change in 2-NBDG: ZR-75-1 cells.
Experimental: For the glucose uptake study, a fluorescently labeled2-deoxyglucose derivative (2-NBDG) was used. […] The cell numbers were determined with CCK-F treatment as described above.
as §1
Data set [7] relates to GRP receptor binding in PC-3 prostate cancer cells. Kind of data set: Effect of drug treatment on GRP receptor binding (177Lu-AMBA) and proliferation in PC-3 cells. The settings on record: PC-3.
Experimental: (§2) RPMI 1640 supplemented with 20 mM HEPES, 0.1% BSA (w/v), 0.5 mM PMSF (AEBSF), bacitracin (50 mg/500 ml), pH 7.4.
(§3) Treatment: BT-474 cells were plated on Day 0 (see above); approximately 24-48 h after plating, treatment Days 1 and 2 (DT1, DT2), the medium was removed and replaced with fresh growth medium (control), or growth medium with the addition of lapatinib (0.1-1.0 μM). […] Incubations were stopped by the addition of 200 μL of ice-cold binding buffer. Plates were washed three more times with binding buffer, 140 μL of scintillation fluid was added to each well, the plates were sealed and analyzed on a Microp plate reader (Microbeta Trilux, Perkin-Elmer).
(§4) Treatment: BT-474 cells were plated on Day 0 and treated on Days 1 and 2 (DT1, DT2).
Data set [8] relates to GRP receptor binding in BT-474 human breast cancer cells. Put plainly: Effect of drug treatment on GRP receptor binding (177Lu-AMBA) and proliferation in BT-474 cells. The settings on record: BT-474; relative to untreated control; drug 0.1-1.0 μM (4-OH Tamoxifen 0.001-0.1 μM).
Experimental: Cells for binding experiments were plated on Day 0 at 5.6×10^4 cells/cm^2 in 96-well white/clear bottom microtiter plates (Falcon Optilux-I), or 96 well black/clear collagen I cellware plates (Beckton Dickinson Biocoat).
as §2, §3, §4
In data set [9] the test system is GRP receptor binding in PC-3 prostate cancer cells. Put plainly: Single plate assay: dasatinib effect on 177Lu-AMBA binding (Bmax) and proliferation (CCK-F) in PC-3 cells. The class given is cell-based. The settings on record: Homo sapiens, 100 nM Dasatinib, read-out: inhibition of growth (cell proliferation). On the procedure: The cells were plated on Day 0 (7.5k/well 96-well PE Scintiplate). […] To determine the cell numbers and the proliferation, 100 uL of 10% CCK-F solution in DPBS (Molecular technologies) was added to the same plate, incubated for 30 min at 37° C. and the relative fluorescence (RFU) measured at 535 nm. Base on the cell numbers and the ^177Lu-binding, the Bmax (fmoles bound/million cells) was calculated, and the results compared with the control.

The mark [10] stands for this setting: drug 0.1-1.0 μM (4-OH Tamoxifen 0.001-0.1 μM).
[11] abbreviates: ZR-75-1, 1-100 nM, treatment on days 2 and 3.

T1 sequence (P30550 whole entry): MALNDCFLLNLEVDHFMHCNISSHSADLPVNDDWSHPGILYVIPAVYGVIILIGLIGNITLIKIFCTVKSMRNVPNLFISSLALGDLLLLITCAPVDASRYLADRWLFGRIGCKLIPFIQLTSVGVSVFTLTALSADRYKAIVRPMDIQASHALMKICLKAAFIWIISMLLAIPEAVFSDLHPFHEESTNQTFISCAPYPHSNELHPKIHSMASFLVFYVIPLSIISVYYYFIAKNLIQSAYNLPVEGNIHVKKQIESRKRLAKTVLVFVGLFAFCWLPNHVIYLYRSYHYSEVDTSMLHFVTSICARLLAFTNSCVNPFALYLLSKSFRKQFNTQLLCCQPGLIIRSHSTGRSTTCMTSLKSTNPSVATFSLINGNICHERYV
Experimental for human GRP-R: To identify potential lead compounds, an in vitro assay that identifies compounds with high affinity for GRP-R was used.
PC3 (human prostate cancer cell line) were obtained from the American Type Culture Collection and cultured in RPMI 1640 (ATCC) in tissue culture flasks (Corning). This growth medium was supplemented with 10% heat inactivated FBS (Hyclone, SH30070.03), 10 mM HEPES (GibcoBRL, 15630-080), and antibiotic/antimycotic (GibcoBRL, 15240-062) for a final concentration of penicillin-streptomycin (100 units/mL), and fungizone (0.25 μg/mL). […] Cells for experiments were plated at a concentration of 2.0×10^4/well either in 96-well white/clear bottom microtiter plates (Falcon Optilux-I) or 96 well black/clear collagen I cellware plates (Beckton Dickinson Biocoat). Plates were used for binding studies on day 1 or 2 post-plating.
RPMI 1640 (ATCC) supplemented with 20 mM HEPES, 0.1% BSA (w/v), 0.5 mM PMSF (AEBSF), Bacitracin (50 mg/500 ml), pH 7.4. ^125I-BBN (carrier free, 2200 Ci/mmole) was obtained from Perkin-Elmer.
A 96-well plate assay was used to determine the IC50 of various compounds of the invention to inhibit binding of ^125I-BBN to human GRP-R. The following general procedure was followed:
All compounds tested were dissolved in binding buffer and appropriate dilutions were also done in binding buffer. PC3 cells (human prostate cancer cell line) for assay were plated at a concentration of 2.0×10^4/well either in 96-well white/clear bottomed microtiter plates (Falcon Optilux-I) or 96 well black/clear collagen I cellware plates (Beckton Dickinson Biocoat). Plates were used for binding studies on day 1 or 2 post-plating. The plates were checked for confluency (>90% confluent) prior to assay. […] These studies were conducted with an assay volume of 75 μl per well. Triplicate wells were used for each data point. After the addition of the appropriate solutions, plates were incubated for 1 h at 4° C. to prevent internalization of the ligand-receptor complex. Incubation was ended by the addition of 200 μl of ice-cold incubation buffer. Plates were washed 5 times and blotted dry. Radioactivity was detected using either the LKB CompuGamma counter or a microplate scintillation counter.
All of the PC3 studies were performed as described in Example XLIII using ^125I-BBN. Selection of compounds for the assay was based on linker subtype.
PC3 cell lines were obtained from ATCC(CRL-1435) and cultured in RPMI 1640 (ATCC) supplemented with 2 mM L-glutamine, 1.5 g/L Sodium bicarbonate, 10 mM HEPES and 10% FBS. […]
All compounds tested were dissolved in binding buffer and appropriate dilutions were also done in binding buffer. […] Radioactivity was detected using either a LKB CompuGamma counter or a microplate scintillation counter.

As for “N-[(3β,5β,12α)-3-[[[4,7,10-Tris(carboxymethyl)-1,4,7,10-tetraazacyclododec-1-yl]acetyl]amino]-glycyl-4-aminobenzoyl-L-leucyl-L-tryptophyl-L-alanyl-L-valinyl-glycyl-L-serinyl-L-phenylalanyl-L-methioninamide [Compound L225]”, the “competition for GRP-R in PC3 cells (in words)” value (“competition for GRP-R” below) on human GRP-R is “reduces competition at the GRP-R”.

For the compound “N-[(3β,5β,12α)-3-[[[4,7,10-Tris(carboxymethyl)-1,4,7,10-tetraazacyclododec-1-yl]acetyl]amino]-glycyl-4-aminobenzoyl-L-glutaminyl-L-tryptophyl-L-alanyl-glycyl-L-histidyl-L-phenylalanyl-L-leucinamide [Compound L224]”, the “competition for GRP-R” value at human GRP-R was “complete loss of binding”.

For the compound `CC/C(=C(\c1ccccc1)c1ccc(OCCN(C)C)cc1)c1ccccc1` [Tamoxifen], in data set [1], the “177Lu-AMBA in Tumor (% ID/g)” value worked out at 0.70 ± 0.39 % ID/g.

Turning to `CC1(N(CC(=O)O)CC(=O)O)CN(CC(=O)O)[C@@H]2CCCC[C@H]2N(CC(=O)O)C1` [XX100], in data set [2] (177Lu complex, 72 h timepoint), the “Blood 7 d % ID (*72 h timepoint)” value was 0.00 ± 0.00 % ID and the “Tumor 7 d % ID/g (*72 h timepoint)” value turned out to be 0.01 ± 0.00 % ID/g. Further, the “distribution of radioactivity (in words)” value in data set [2] (Lu-177 complexes, 1 h, 1 and 7 days) is reported as “rapidly cleared from the body with little residual localization in any organs or tissue”.

As to Herceptin, the overall response in data set [3] is on record as 9%.

Consider `CC/C(=C(\c1ccc(O)cc1)c1ccc(OCCN(C)C)cc1)c1ccccc1` [4-OH Tamoxifen], for which the results for the “decrease in 177Lu-AMBA binding (GRP receptor specific signal per cell)” value in data set [4] (setting [10]) and in data set [8] were “up to 35%” and “up to 73%”, respectively. Further, in data set [5] (ZR-75-1, 100 nM everyday, by 12 day), the “inhibition of proliferation, long-term treatment” value came out at 28%. The “177Lu-AMBA uptake, long-term treatment, in words” value in [5] (ZR-75-1, 100 nM, 2-12 days) is given as “significant reduction”. Moreover, in data set [5] (setting [11]), the “cell proliferation, in words” value was “little change”. For the same compound, the “% Change in Proliferation” value is given as −11.3 (±8.3) % in [5] (100 nM, 5 days of treatment); −28.0 (±14.1) % in [5] (100 nM, 12 days of treatment); −7.2 (±3.8% in data set [5] (2 days of treatment). Further, the “% change in 177Lu-AMBA Uptake” value is listed as −77.4 (+1.6) % in [5] (100 nM, 5 days of treatment); −72.3 (±14.6) % in data set [5] (100 nM, 12 days of treatment); −65.9 (±9.7) % in [5] (2 days of treatment). The “2-NBDG uptake, long-term treatment, in words” value in [6] (ZR-75-1, 100 nM, 2-12 days) is “smaller changes”. The “decrease in glycolysis (2-NBDG uptake)” value in data set [6] (setting [11]) is about 20%. Also, the “% Change in 2-NBDG” value in data set [6] (100 nM, 5 days of treatment) is recorded as −47.5%; in [6] (100 nM, 12 days of treatment), 14.5%. Besides, the “GRP receptor specific signal per cell (177Lu-AMBA binding) versus untreated controls, in words” value in data set [7] (setting [10]) is given as “no change”.

Regarding “DO3A-Gly-Abz-4-Gln-Trp-Ala-Val-Gly-His-Phe-Leu-NH2 [Compound L300]”, the “competition for GRP-R” value at human GRP-R was “high activity at the GRP-R”.

Consider “N-[(3β,5β,12α)-3-[[[4,7,10-Tris(carboxymethyl)-1,4,7,10-tetraazacyclododec-1-yl]acetyl]amino]-glycyl-4-aminobenzoyl-L-glutaminyl-L-tryptophyl-L-alanyl-L-valyl-glycyl-L-histidyl-L-phenylalanyl-L-methioninamide [Compound L228]”, for which the “competition for GRP-R” value at human GRP-R is listed as “maintains GRP-R activity”.

As for `Cc1nc(Nc2ncc(C(=O)Nc3c(C)cccc3Cl)s2)cc(N2CCN(CCO)CC2)n1` [dasatinib], the “increase in 177Lu-AMBA binding (GRP receptor specific signal per cell)” value in data set [4] (drug 0.1-1.0 μM (gefitinib 0.1-10 μM)) is “up to 500%”; in data set [7] (relative to untreated control, drug 0.1-1.0 μM), “up to 250%”. Also, the inhibition at 0.1 µM in [9] is at most 33%.
